Measured values: US12358948B2, “Neurotensinergic agonists and methods of using same preventing or treating pain” (priority 2019, dated 2025)
Several values for one entry are separate records, joined by “and”; a condition that tells them apart may be missing. Identical values can stand only once. Entries after “also recorded” stand apart in the source; their conditions may differ. Where a SMILES comes first, the peptide text is derived from it. Bridges are numbered along the chain shown (N, C = ends). [ ]: non-standard residue; d: D form. Ala(cPent) = N[C@@H](CC1CCCC1)C(=O)O; AllylGly = C=CC[C@H](N)C(=O)O

How the values were obtained:
hNTS1 receptor = target: T1, hNTS1 receptor (Homo sapiens, UniProt P30989); assay: Competitive radioligand binding assay on the hNTS1 receptor; conditions: IC50 NTS1, displacement of 125I-[Tyr3]-NT, membranes of CHO-K1 cells expressing hNTS1
T1 construct: membranes prepared from them
T1 sequence (P30989 whole entry): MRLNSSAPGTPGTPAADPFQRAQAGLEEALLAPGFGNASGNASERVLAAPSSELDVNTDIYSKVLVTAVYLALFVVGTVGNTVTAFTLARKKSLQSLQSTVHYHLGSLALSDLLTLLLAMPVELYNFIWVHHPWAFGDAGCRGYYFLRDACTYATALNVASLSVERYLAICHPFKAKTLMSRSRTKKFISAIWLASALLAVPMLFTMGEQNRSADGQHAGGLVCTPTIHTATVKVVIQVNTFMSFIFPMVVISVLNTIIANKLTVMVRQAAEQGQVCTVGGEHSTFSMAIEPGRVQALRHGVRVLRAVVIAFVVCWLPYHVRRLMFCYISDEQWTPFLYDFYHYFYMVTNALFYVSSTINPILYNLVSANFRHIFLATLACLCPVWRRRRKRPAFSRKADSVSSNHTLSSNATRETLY
Summary of the method: (§1)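 IC50 values came from one-site competition curves against ¹²⁵I-[Tyr³]-NT after 60 min at 25 °C (pH 7.5 Tris, 0.2% BSA), with analogues at 10⁻¹¹–10⁻⁴ M and nonspecific binding set by 10⁻⁵ M NT(8-13). hNTS1 used 15 µg CHO-K1 membranes with […] tracer; hNTS2 used 50 µg 1321N1 membranes with […] tracer.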

hNTS2 receptor = target: T2, hNTS2 receptor (Homo sapiens, UniProt O95665); assay: Competitive radioligand binding assay on the hNTS2 receptor; conditions: for IC50: IC50 NTS2, displacement of 125I-[Tyr3]-NT, membranes of 1321N1 cells expressing hNTS2; for Selectivity: ratio IC50 for NTS1 : IC50 for NTS2
T2 construct: membranes prepared from them
T2 sequence (O95665 whole entry): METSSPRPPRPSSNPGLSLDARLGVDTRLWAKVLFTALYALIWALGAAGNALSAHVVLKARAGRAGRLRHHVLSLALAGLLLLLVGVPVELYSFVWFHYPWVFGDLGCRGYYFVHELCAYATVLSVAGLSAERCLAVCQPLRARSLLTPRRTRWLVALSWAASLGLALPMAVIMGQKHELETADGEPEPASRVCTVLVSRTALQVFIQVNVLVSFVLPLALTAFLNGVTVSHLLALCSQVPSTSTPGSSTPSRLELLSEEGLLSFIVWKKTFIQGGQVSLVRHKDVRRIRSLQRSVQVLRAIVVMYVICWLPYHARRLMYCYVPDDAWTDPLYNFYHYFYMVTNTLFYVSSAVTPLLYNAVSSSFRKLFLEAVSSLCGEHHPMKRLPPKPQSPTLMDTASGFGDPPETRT
Summary of the method: as §1

[1] = Body temperature (hypothermia) after intrathecal injection; assay type: in vivo, rat; conditions: vs saline
Procedure: Body temperature was measured using a thermistor probe inserted into the rectum of the rats. Animals were individually acclimatized to manipulations and thermistor probe 5 min/day for three consecutive days. […] Changes in body temperature (Δ body temperature) were determined from baseline for each time and each animal. Data represents the mean±SEM of 5-6 rats for each condition.
Data are expressed as mean±standard errors of the mean (SEM). All graphs and statistical analysis were performed using GraphPad Prism™ 7 (GraphPad software, La Jolla, CA, USA). […] A two-way ANOVA followed by Tukey's multiple comparisons test was used to determine the significant differences in changes in body temperature between different concentrations of compounds and saline (FIG. 9). The % MPE for the tail-flick test and the areas under the curve for the formalin test were analyzed using a one-way ANOVA followed by a Dunnett's multiple comparisons test to compare different concentrations of compounds and saline treatment (FIGS. 2B, 4B, 7A-B and 8B-D). […] Nonlinear regression using three parameters was performed for % of ileum relaxation and IC50 value was obtained from the resulting dose-response curve (FIG. 11). A difference in response was considered significant with p-values *p<0.05, **p<0.01, ***p<0.001 and **p<0.0001.

[2] = Blood pressure measurements after intravenous injection
Procedure: Mean, systolic and diastolic arterial blood pressure and a heart rate were measured through a catheter (PE 50 filled with heparinized saline) inserted in the right carotid artery and connected to a Micro-Med transducer (model TDX-300, USA) linked to a blood pressure Micro-Med analyzer (model BPA-100c). […] Blood pressure was recorded each second for up to 1000 seconds following intravenous injection. […] Data represents the mean±SEM of 4-5 rats for each condition.

CC(C)C[C@H](NC(=O)[C@H](Cc1ccc(O)cc1)NC(=O)[C@@H]1CC=CC[C@H](N)C(=O)N[C@@H](CCCCN)C(=O)N[C@@H](CCCCN)C(=O)N1)C(=O)O [compound 34, c[G(All)KKG(All)]YL] (H-[AllylGly]KK[AllylGly]YL-OH; staple 1-4)
IC50 (hNTS1 receptor): 199 µM and 100 µM
IC50 (hNTS2 receptor): 0.0596 µM
Selectivity (hNTS2 receptor): 3339 and 1685
Hypothermia (i.t.) ([1]; 150 μg/kg i.t.): no significant variation in body temperature; also recorded: No hypothermia
Hypotension (i.v.) ([2]; 0.01, 0.1, 1 mg/kg i.v.): no significant hypotension

NCCCC[C@@H]1NC(=O)[C@H](CCCCN)NC(=O)[C@@H](N)CC=CC[C@@H](C(=O)N[C@@H](Cc2ccc(O)cc2)C(=O)N[C@@H](CC2CCCC2)C(=O)O)NC1=O [compound 67, c[G(All)KKG(All)]YA(cyclopentyl)] (H-[AllylGly]KK[AllylGly]Y[Ala(cPent)]-OH; staple 1-4)
IC50 (hNTS1 receptor): > 100 µM
IC50 (hNTS2 receptor): 0.00306 µM
Selectivity (hNTS2 receptor): >32 680
Hypothermia (i.t.) ([1]; 209 nmol/kg i.t.): no significant variation in body temperature; also recorded: No hypothermia
Hypotension (i.v.) ([2]; 1 mg/kg i.v.): no significant hypotension
